{"source": "patent US20220242810A1", "about": "“CRYSTALLINE CANNABIGEROL” (Purisys LLC, priority 2019, published 2022)", "origin": "cited, not measured here", "key": {"[1]": {"settings": "rats"}, "[2]": {"test_system": "uptake of γ-aminobutyric acid (GABA)"}, "[3]": {"test_system": "α2-adrenergic receptor"}, "[4]": {"biological_target": "CB2 receptor (Homo sapiens, UniProt P34972)", "sequence (P34972 whole entry)": "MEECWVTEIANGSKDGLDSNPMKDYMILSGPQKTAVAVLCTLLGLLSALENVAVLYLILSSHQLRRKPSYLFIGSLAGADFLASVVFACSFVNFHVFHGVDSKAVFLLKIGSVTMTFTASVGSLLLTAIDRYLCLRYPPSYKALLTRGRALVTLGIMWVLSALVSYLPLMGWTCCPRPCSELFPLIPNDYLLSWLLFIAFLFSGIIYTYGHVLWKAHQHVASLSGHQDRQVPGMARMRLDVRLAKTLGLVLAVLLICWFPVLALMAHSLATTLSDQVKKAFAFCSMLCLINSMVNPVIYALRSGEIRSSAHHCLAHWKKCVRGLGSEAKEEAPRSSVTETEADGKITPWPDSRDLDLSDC", "settings": "unknown whether agonist or antagonist"}, "[5]": {"biological_target": "T1, 5-HT1A receptor (Homo sapiens, UniProt P08908)", "T1 sequence (P08908 1-422)": "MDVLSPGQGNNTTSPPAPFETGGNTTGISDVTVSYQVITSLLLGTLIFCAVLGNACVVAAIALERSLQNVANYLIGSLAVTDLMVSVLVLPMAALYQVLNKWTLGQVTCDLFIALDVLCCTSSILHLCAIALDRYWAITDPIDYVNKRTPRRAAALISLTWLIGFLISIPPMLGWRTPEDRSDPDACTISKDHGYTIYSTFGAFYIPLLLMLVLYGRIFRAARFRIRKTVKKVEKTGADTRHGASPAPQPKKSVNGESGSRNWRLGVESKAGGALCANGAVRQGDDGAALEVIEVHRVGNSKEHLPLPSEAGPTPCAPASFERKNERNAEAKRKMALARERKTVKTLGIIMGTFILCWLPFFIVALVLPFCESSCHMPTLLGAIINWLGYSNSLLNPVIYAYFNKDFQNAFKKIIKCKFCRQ"}, "[6]": {"test_system": "colon cancer cells", "settings": "one study"}, "[7]": {"biological_target": "CBI receptor (Homo sapiens, UniProt P21554)", "sequence (P21554 whole entry)": "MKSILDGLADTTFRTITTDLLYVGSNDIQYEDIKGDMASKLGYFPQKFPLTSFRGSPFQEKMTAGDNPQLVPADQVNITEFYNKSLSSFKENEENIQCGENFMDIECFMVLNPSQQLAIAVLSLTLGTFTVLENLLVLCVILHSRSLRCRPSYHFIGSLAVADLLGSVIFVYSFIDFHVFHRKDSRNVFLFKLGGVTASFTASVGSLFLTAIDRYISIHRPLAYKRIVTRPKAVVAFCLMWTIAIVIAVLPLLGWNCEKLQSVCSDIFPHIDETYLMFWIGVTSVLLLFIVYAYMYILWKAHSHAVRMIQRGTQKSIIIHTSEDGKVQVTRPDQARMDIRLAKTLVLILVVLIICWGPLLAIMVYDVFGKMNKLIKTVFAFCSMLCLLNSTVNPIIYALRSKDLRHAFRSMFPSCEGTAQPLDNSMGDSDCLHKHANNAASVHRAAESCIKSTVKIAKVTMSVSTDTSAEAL"}, "[8]": {"settings": "in vivo"}}}
{"smiles": "CCCCCc1cc(O)c(C/C=C(\\C)CCC=C(C)C)c(O)c1", "note": "[CBG, 2-[(2E)-3,7-dimethylocta-2,6-dienyl]-5-pentyl-benzene-1,3-diol]", "values": [{"measurement": "anti-nausea and anti-emetic effect", "setting": "[1]", "value": "anti-nausea and anti-emetic effect"}, {"measurement": "uptake of γ-aminobutyric acid (GABA) in the brain", "setting": "[2]", "value": "inhibits the uptake"}, {"measurement": "affinity as α2-adrenergic receptor agonist", "setting": "[3]", "value": "high affinity"}, {"measurement": "binding with the CB2 receptor", "setting": "[4]", "value": "known to bind"}, {"measurement": "affinity as 5-HT1A receptor antagonist", "setting": "[5]", "value": "moderate affinity"}, {"measurement": "growth of colon cancer cells", "setting": "[6]", "value": "inhibits the growth"}, {"measurement": "affinity as CBI receptor antagonist", "setting": "[7]", "value": "low affinity"}, {"measurement": "effect on intraocular pressure", "setting": "[8]", "value": "relieve intraocular pressure"}]}
